Assay results: patent US20260327211A1, “MODULATORS OF A POTASSIUM CHANNEL AND OF TRPV1 CHANNEL AND USES THEREOF” (Bsense Bio Therapeutics Ltd., priority 2023, published 2026)

Columns and labels:
DRG distribution in rat = type: in vivo; conditions: 8-hour post-dose
[1] = system: Distal Tibial Injury (DTI) rats; assay: Distal Tibial Injury (DTI) model, von Frey; type: in vivo, rat; conditions: 100 mg/kg oral, 6 hours post-dose
Method: (§1) All animal experiments were carried out according to the Guide for the Care and Use of Laboratory Animals (2011 edition) and approved by the Israel National Institutional Animal Care and Use Committee (IACUC). Young adult male SD rats (Envigo RMS, Israel), were used for in vivo efficacy: Spared Nerve Injury (SNI), Distal Tibial Injury (DTI) and Post-operative Pain (POP), 200-220 grams, Chronic Post-Ischemia Pain (CPIP) 275-325 grams, Monosodium iodoacetate-induced osteoarthritis (MIA-OA) 180-220 grams; for in vivo safety: 200-250 grams at study initiation. […] The health status of the animals used in this study was examined upon their arrival. Only animals in good health were acclimatized to laboratory conditions and were used in the studies. All studies were performed following at least five days of animal acclimation. During acclimation and throughout the entire study duration, animals were housed within a limited-access rodent facility and kept in groups with a maximum of 2-3 rats per polypropylene cage. The cages were fitted with solid bottoms and filled with sterile wood shavings as bedding material. Animals were provided ad libitum with a commercial, sterile rodent diet and had free access to drinking water that was supplied to each cage via polyethylene bottles with stainless steel sipper tubes. […] Water was monitored periodically. […]

[2] = system: Post-operative Pain (POP) rats; assay: Post-operative Pain model, mechanical PWT; type: in vivo, rat; conditions: 100 mg/kg, 6 hours post-dose
Method: as §1, with “material.” for “material. Animals were provided ad libitum with a commercial, sterile rodent diet and had free access to drinking water that was supplied to each cage via polyethylene bottles with stainless steel sipper tubes.”
Post-operative Pain (POP): For this model, animals were anesthetized by medetomidine/ketamine sodium IP. […] On the following day, animal responses to von Frey (VF) filaments and hot-plate testing were recorded. […]

[3] = system: Post-operative Pain (POP) rats; assay: Post-operative Pain model, thermal; type: in vivo, rat; conditions: 100 mg/kg, 6 hours post-dose
Method: All animal experiments were carried out according to the Guide for the Care and Use of Laboratory Animals (2011 edition) and approved by the Israel National Institutional Animal Care and Use Committee (IACUC). Young adult male SD rats (Envigo RMS, Israel), were used for in vivo efficacy: Spared Nerve Injury (SNI), Distal Tibial Injury (DTI) and Post-operative Pain (POP), 200-220 grams, Chronic Post-Ischemia Pain (CPIP) 275-325 grams, Monosodium iodoacetate-induced osteoarthritis (MIA-OA) 180-220 grams; for in vivo safety: 200-250 grams at study initiation. […] The health status of the animals used in this study was examined upon their arrival. Only animals in good health were acclimatized to laboratory conditions and were used in the studies. All studies were performed following at least five days of animal acclimation. […] Water was monitored periodically. […]
Post-operative Pain (POP): For this model, animals were anesthetized by medetomidine/ketamine sodium IP. […] On the following day, animal responses to von Frey (VF) filaments and hot-plate testing were recorded.
Hot Plate: Animals were placed on hot plate analgesia meter (IITC Life Science Inc., CA, USA) set to 53±1° C., and the time until the first escape response was observed was recorded. […]

[4] = system: Salmonella typhimurium (TA98, TA100, TA1535, TA1537) and Escherichia coli WP2uvrA (pKM101); assay: Mini-Ames assay; type: cell-based; conditions: 5 strains, with and without S9
Method: The Mini-Ames assay was performed according to the regulatory guidelines. In brief, 5 strains were selected for testing: Salmonella typhimurium (TA98, TA100, TA1535, TA1537) and Escherichia coli WP2uvrA (pKM101). A standard six-well culture plate with top agar containing 0.6% (w/v) agar and 0.5% (w/v) sodium chloride was supplemented with 0.5 mM D-biotin and 0.5 mM L-histidine for Salmonella typhimurium strains or 0.5 mM D-biotin and 0.5 mM L-tryptophan for Escherichia coli WP2uvrA (pKM101). […] Average number of revertants for each dose group condition was compared to negative control, and cytotoxicity and precipitates were recorded.

NMDA = assay: Functional selectivity panel, NMDA; type: biochemical; conditions: up to 10 micromolar
Method: (§2) A broad panel of 78 recombinant targets was tested for pharmacologic activity in vitro through a variety of functional assays (Eurofins DiscoverX, USA), as part of the National Institute of Neurological Disorders and Stroke (NINDS) Preclinical Screening Platform for Pain (PSPP) program. The biological targets for the in vitro profiling have been selected based on avoiding opioid receptor stimulation and targets known to be associated with adverse events or targeted by drugs of abuse. […] For each test, a reference compound was evaluated at the target of interest as a positive control.

Cav1.2 = Cav1.2 (Homo sapiens, UniProt Q13936); assay: Functional screening panel, Cav1.2; type: biochemical; conditions: read-out: IC/EC50 Cav1.2
Method: as §2

Vasopressin 1-2 = assay: Functional screening panel, Vasopressin 1-2; type: biochemical; conditions: up to 10 micromolar
Method: as §2

Cav1.2, sequence (Q13936 whole entry): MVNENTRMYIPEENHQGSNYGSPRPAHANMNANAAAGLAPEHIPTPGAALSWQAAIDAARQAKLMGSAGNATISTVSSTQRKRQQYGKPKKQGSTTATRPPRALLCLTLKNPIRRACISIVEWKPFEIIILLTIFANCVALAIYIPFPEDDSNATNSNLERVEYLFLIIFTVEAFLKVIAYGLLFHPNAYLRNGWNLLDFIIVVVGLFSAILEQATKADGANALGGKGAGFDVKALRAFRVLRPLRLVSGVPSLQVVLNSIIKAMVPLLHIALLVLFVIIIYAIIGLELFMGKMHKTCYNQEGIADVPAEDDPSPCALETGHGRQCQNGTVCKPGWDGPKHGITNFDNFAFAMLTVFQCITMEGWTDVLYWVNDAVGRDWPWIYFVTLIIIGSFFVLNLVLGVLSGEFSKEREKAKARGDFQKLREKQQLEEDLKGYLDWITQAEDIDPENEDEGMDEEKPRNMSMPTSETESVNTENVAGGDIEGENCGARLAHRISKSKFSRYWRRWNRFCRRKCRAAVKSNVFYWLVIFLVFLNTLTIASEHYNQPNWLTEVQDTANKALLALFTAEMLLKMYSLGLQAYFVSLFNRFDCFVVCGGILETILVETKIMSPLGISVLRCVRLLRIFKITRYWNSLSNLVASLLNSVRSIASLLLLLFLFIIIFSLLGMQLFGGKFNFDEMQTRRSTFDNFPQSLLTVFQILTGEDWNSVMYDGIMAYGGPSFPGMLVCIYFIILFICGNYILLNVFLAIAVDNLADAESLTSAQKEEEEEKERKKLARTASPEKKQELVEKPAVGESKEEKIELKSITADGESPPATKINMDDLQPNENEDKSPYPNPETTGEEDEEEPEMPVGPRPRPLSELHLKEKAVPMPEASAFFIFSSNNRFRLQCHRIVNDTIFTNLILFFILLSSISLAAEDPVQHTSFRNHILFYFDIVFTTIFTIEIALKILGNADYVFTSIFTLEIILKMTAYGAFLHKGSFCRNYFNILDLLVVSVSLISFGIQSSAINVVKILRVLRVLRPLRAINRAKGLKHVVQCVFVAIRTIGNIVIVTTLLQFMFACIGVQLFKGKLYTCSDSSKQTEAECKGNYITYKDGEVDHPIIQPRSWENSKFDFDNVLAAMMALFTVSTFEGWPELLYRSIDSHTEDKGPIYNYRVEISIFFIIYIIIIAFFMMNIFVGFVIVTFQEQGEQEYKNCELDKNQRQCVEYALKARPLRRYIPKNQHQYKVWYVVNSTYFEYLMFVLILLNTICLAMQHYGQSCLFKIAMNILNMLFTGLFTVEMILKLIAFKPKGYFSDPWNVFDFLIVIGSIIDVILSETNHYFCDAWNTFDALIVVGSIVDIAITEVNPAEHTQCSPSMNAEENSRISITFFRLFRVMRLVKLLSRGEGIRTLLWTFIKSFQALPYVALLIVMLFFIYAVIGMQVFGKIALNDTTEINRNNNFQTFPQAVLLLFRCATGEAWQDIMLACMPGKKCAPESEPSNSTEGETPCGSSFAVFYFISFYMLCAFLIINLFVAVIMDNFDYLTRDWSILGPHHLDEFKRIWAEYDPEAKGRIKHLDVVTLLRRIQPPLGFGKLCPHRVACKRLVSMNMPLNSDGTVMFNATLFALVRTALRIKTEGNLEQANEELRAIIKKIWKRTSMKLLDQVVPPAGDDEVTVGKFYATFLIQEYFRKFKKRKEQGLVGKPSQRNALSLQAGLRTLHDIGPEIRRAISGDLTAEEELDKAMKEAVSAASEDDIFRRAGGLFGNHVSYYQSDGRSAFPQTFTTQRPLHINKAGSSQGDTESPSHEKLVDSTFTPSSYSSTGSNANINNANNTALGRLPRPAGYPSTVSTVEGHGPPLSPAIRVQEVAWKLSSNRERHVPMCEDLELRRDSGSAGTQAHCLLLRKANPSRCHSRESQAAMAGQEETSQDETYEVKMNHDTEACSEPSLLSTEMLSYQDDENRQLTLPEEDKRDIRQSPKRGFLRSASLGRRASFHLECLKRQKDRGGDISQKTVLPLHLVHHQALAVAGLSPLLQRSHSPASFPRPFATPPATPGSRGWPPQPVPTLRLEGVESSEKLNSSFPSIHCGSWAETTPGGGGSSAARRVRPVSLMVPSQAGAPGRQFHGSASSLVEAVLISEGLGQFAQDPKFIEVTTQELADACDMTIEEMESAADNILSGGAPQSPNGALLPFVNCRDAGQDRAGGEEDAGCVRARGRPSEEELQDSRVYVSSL
Cav1.2, sequence (P54289 25-944 partner limits assumed): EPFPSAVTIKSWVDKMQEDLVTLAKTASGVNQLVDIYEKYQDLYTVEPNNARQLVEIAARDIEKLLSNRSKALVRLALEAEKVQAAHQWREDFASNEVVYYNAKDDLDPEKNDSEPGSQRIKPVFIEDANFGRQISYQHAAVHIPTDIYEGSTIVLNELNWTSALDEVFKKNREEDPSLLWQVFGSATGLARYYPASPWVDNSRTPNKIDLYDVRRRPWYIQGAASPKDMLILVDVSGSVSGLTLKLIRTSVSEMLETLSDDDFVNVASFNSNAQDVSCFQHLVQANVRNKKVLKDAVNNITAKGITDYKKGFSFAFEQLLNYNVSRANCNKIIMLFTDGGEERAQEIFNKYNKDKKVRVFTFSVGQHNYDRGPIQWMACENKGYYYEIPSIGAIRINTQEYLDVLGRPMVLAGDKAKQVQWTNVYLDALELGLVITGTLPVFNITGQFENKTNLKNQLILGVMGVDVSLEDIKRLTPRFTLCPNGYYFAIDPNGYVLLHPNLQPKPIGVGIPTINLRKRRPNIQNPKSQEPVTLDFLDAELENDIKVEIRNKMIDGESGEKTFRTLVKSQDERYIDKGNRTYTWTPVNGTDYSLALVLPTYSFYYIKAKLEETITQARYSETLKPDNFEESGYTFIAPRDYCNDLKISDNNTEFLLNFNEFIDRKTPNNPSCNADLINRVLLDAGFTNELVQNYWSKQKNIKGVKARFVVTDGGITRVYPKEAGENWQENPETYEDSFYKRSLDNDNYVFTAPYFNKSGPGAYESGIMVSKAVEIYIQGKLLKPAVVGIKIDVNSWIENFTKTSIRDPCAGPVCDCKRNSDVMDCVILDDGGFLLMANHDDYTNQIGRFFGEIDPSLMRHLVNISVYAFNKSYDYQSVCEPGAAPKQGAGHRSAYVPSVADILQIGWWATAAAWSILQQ
Cav1.2, sequence (P54289 945-1103 partner limits assumed): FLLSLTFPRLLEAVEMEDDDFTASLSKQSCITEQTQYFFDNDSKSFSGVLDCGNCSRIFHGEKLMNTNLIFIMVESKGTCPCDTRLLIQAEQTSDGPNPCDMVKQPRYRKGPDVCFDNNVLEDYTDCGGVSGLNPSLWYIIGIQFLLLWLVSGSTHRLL

Structure (SMILES)	Free exposure in DRG (DRG distribution in rat)	Reversal of mechanical PWT [1]	Mechanical PWT [2]	Thermal withdrawal latency [3]	Cytotoxic effect in Ames strains [4]	Reversion rates [4]	Effect on NMDA (NMDA)	IC50 (Cav1.2)	Effect on Vasopressin 1-2 (Vasopressin 1-2)
O=C(Cc1cncc(-n2cc(Cl)c3cc(Cl)cc(Cl)c32)c1)N[C@@H]1COC[C@H]1O [Compound 661]	0.012 nM	45.9%	did not affect the mechanical PWT	completely reversed	–	–	–	–	–
O=C(Cc1nccc(-n2cc(Cl)c3cc(Cl)cc(Cl)c32)n1)NC1COCC1O (stereo not drawn) [Compound 760]	–	–	–	–	No significant cytotoxic effect	did not induce substantial dose-dependent increases in reversion rates	no effect	2.99 µM	no effect
